pKd: −log10 of the molar value.
Assays:
Test in all cases: biochemical
nemo-like kinase, NLK = target: T1, nemo-like kinase, NLK (Homo sapiens, UniProt Q9UBE8)
T1 sequence (Q9UBE8 1-527): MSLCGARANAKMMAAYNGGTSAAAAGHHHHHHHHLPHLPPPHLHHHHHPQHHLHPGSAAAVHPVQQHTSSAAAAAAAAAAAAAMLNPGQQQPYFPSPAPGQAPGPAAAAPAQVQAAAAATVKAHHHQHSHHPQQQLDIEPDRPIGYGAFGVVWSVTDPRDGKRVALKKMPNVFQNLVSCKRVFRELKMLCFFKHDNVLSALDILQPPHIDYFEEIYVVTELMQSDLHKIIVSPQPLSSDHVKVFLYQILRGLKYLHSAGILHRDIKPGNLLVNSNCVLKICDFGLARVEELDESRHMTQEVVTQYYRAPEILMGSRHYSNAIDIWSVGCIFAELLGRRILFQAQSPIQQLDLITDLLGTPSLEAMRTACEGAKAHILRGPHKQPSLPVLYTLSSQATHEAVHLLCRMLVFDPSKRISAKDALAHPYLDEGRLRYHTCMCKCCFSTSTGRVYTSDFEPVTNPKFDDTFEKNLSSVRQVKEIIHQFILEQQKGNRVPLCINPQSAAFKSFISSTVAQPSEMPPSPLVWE

[1] = target: AarF domain containing kinase 3, ADCK3 (Homo sapiens, UniProt Q8NI60)
Sequence of AarF domain containing kinase 3, ADCK3 (Q8NI60 163-647): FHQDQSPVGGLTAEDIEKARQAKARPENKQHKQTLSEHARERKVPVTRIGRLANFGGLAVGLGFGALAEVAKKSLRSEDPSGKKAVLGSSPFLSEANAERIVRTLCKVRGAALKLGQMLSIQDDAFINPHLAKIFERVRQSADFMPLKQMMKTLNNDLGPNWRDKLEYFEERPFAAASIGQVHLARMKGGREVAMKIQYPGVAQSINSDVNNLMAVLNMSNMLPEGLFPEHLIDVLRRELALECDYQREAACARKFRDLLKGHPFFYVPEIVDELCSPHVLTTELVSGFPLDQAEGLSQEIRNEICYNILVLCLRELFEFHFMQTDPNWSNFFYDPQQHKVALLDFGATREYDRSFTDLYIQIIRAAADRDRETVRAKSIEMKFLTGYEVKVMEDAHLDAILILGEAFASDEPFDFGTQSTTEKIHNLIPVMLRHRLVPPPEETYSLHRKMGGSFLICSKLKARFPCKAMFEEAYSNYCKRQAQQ

MEK5 = target: T2, MEK5 (Homo sapiens, UniProt Q13163)
T2 sequence (Q13163 1-448): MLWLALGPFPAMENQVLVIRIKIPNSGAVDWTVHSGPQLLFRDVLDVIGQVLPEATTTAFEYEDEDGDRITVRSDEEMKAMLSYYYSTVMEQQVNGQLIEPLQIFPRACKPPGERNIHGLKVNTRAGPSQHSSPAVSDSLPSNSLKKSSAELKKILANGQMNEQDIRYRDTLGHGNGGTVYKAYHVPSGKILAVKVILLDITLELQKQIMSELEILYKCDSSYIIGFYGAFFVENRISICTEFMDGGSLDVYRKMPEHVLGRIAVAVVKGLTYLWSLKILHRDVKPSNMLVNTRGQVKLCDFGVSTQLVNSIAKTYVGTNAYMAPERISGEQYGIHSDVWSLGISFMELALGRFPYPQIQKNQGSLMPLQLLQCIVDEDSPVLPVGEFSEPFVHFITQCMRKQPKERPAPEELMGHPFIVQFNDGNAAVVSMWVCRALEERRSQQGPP

EphB6 = target: T3, EphB6 (Homo sapiens, UniProt O15197)
T3 sequence (O15197 1-1021): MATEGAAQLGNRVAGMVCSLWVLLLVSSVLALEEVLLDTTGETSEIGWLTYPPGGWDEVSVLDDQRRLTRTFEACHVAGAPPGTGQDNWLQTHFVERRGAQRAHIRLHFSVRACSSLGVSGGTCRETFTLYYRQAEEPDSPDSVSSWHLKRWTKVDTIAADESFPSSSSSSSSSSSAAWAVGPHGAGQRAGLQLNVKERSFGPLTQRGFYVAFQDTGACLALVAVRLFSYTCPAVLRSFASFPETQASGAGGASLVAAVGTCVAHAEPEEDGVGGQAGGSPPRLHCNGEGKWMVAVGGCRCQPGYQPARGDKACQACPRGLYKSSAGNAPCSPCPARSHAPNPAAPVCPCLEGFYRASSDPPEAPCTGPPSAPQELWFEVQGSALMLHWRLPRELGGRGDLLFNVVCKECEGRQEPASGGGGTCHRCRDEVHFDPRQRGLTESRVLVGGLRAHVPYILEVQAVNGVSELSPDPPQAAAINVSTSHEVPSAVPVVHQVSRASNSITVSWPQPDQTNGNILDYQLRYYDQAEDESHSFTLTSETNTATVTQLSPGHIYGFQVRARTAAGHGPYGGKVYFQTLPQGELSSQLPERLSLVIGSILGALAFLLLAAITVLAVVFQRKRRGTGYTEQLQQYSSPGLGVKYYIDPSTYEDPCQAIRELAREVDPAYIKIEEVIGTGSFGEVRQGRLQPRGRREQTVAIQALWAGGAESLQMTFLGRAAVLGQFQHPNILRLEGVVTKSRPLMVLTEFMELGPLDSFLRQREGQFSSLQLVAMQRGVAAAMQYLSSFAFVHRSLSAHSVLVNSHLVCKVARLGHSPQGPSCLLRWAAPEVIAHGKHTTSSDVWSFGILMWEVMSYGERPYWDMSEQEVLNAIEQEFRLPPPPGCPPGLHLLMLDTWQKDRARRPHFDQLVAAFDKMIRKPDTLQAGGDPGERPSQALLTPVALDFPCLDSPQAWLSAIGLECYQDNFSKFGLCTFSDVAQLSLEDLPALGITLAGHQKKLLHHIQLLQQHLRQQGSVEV

[2] = target: receptor-interacting protein kinase 2, RIPK2 (Homo sapiens, UniProt O43353)
Sequence of receptor-interacting protein kinase 2, RIPK2 (O43353 whole entry): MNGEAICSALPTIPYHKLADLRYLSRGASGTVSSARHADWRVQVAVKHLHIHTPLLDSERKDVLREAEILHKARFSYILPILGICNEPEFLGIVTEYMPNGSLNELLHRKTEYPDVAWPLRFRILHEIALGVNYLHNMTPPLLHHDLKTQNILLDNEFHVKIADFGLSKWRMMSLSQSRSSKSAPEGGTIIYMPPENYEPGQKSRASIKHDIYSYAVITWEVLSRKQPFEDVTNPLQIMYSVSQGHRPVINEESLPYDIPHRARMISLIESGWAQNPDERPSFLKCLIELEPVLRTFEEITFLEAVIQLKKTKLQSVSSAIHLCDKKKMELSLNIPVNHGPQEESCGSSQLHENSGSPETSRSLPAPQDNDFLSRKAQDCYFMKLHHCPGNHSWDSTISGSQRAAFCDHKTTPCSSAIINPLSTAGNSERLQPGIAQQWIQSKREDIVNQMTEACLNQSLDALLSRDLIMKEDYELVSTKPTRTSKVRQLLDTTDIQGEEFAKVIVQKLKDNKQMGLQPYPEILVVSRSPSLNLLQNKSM

- pKd (nemo-like kinase, NLK): < 5.00
- pKd [1]: < 5.00
- pKd (MEK5): < 5.00
- pKd (EphB6): < 5.00
- pKd [2]: < 5.00
SMILES: COc1cc(N(C)c2ccnc3ccc(C(F)(F)F)cc23)cc(OC)c1OC [compound 21, negative control (21)]

From article doi:10.1101/471615v1 (biorxiv, 2018)
